Data from PMC6817585, “Simultaneous Determination of Five Alkaloids by HPLC-MS/MS Combined With Micro-SPE in Rat Plasma and Its Application to Pharmacokinetics After Oral Administration of Lotus Leaf Extract” (Frontiers in Pharmacology, 2019).
Read-outs that look alike come from different tables or passages of the source.

Legend:
[1] = Stability of stock and working solutions; assay type: physicochemical; conditions: for Remain, working solution: n = 6
Method: (§1) The stabilities (including auto-sampler, freeze–thaw cycles, and short-time and long-term stability) of all analytes were obtained by testing QC samples of four concentrations. Moreover, the stabilities for stock and working solution were assessed with mixed standard substance (100 ng·ml^−1) and the QC sample solutions of four concentration levels, respectively. These solutions were achieved by diluting stock solutions kept at 4°C for 2 weeks. For IS, the evaluated procedures of two stabilities were same as the five alkaloids.

[2] = Stability of analytes in rat plasma QC samples (auto-sampler, freeze-thaw, short-time, long-term); assay type: in vitro ADME
Method: as §1

[3] = Pharmacokinetics of five alkaloids in rat plasma after oral administration of lotus leaf extract; assay type: in vivo, Male Sprague-Dawley rats; conditions: rat; for AUC / AUC(0-inf) / Cmax / MRT / MRT inf / Tmax / half-life: male, Sprague-Dawley, 2.4 g/kg
Method: All analyses were performed on Agilent 1200 HPLC system (Agilent Corporation, USA) and API 3200 triple-quadrupole mass spectrometer (Concord, Ontario, Canada) in multiple-reaction monitoring (MRM) with positive ionization mode. Acetonitrile (A) and formic acid aqueous solution (B) (0.1%, v/v) is used to separate the analytes on Eclipse plus C18 column (4.6 mm × 100 mm, 1.8 µm) with a guard C18 column (2.1 mm × 12.5 mm, 5 µm). The gradient of elution is as follows: 5%–60% A at 0 to 4 min, 60%–70% A at 4 to 5 min, 70%–93% A at 5 to 7 min, 93%–94% A at 7 to 11 min, 94%–5% A at 11 to 12 min, and 5%–5% A at 12 to 17 min. The flow rate and injection volume are 0.3 ml·min^-1 and 5 µl, respectively. The main parameters of ion source including the ion spray voltage, the curtain gas, and temperature are set at 5000 V, 35 psi, and 450°C, respectively.
The real plasma sample (100 µl) and IS solution (10 µl) were vortex-mixed for 1 min. The sample was carried out with the SPE column (Cleanert PEP-2, 40–60 µm, 60 Å, 10 mg/1 ml; Phenomenex, Torrance, CA, USA). First, SPE columns were activated by 50% methanol in water (1 ml) and 0.1% formic acid in water (1 ml) and were used to activate the SPE column in sequence. Second, columns were washed with 200 µl methanol (20%, v/v) and eluted with acetonitrile (400 µl) after the plasma samples were added. Finally, the eluent was centrifuged for 10 min with 14,000 rpm. Then final solutions were injected into the HPLC-MS/MS and analyzed.
The pharmacokinetic study was conducted in accordance with the Guidelines for the Care and Use of Laboratory Animals by the US National Institutes of Health and approved by the Animal Ethics Committee of Tianjin University of Traditional Chinese Medicine (permit number: TCM-LAEC2019022, Tianjin, China),. Male Sprague-Dawley rats (240–260 g) were fed in the animal laboratory of the Tianjin University of Traditional Chinese Medicine under the standard conditions. These rats were allowed free to get standard laboratory food and water and conformed for 1 week until 12 h before experiment. These rats (n = 10) were fasted, although they were still given water for 12 h, before the oral administration of lotus leaf extract. […] The plasma samples were centrifuged in 10 min at 7000 rpm and kept at −20°C until analyzed.
All of the pharmacokinetic parameters were calculated by one compartment model with DAS 1.0 software (Medical College of Wannan). The maximum drug concentration (Cmax) and the time to reach Cmax (Tmax) were acquired from observed concentration–time profile for oral administration in plasma. All data were shown as mean ± SD.

[4] = concentration LLOQ, from stock kept at 4°C for 2 weeks

Structure (SMILES): O=C1c2ccccc2-c2c3c(cc4ccnc1c24)OCO3 [Liriodenine, liriodenine]
- Remain, working solution ([1]; 1 ng/ml): 96.9%
- Remain, working solution ([1]; 40 ng/ml): 91.7%
- Remain, working solution ([1]; 200 ng/ml): 112%
- Remain, working solution [1, 4]: 105%
- Remain, autosampler for 24 h ([2]; rat plasma QC, autosampler 24 h, 1 ng/ml, n = 6): 86.0%
- Remain, autosampler for 24 h ([2]; rat plasma QC, autosampler 24 h, 40 ng/ml, n = 6): 105%
- Remain, autosampler for 24 h ([2]; rat plasma QC, autosampler 24 h, 200 ng/ml, n = 6): 96.8%
- Remain, autosampler for 24 h ([2]; rat plasma QC, autosampler 24 h, LLOQ, n = 6): 95.7%
- Remain, freeze thaw cycles ([2]; rat plasma QC, freeze thaw cycles, 1 ng/ml, n = 6): 86.9%
- Remain, freeze thaw cycles ([2]; rat plasma QC, freeze thaw cycles, 40 ng/ml, n = 6): 92.7%
- Remain, freeze thaw cycles ([2]; rat plasma QC, freeze thaw cycles, 200 ng/ml, n = 6): 90.5%
- Remain, freeze thaw cycles ([2]; rat plasma QC, freeze thaw cycles, LLOQ, n = 6): 91.7%
- Remain, room temperature for 24 h ([2]; rat plasma QC, room temperature 24 h, 1 ng/ml, n = 6): 87.9%
- Remain, room temperature for 24 h ([2]; rat plasma QC, room temperature 24 h, 40 ng/ml, n = 6): 96.9%
- Remain, room temperature for 24 h ([2]; rat plasma QC, room temperature 24 h, 200 ng/ml, n = 6): 102%
- Remain, room temperature for 24 h ([2]; rat plasma QC, room temperature 24 h, LLOQ, n = 6): 92.9%
- Remain, −80°C for 1 month ([2]; rat plasma QC, −80°C 1 month, 1 ng/ml, n = 6): 107%
- Remain, −80°C for 1 month ([2]; rat plasma QC, −80°C 1 month, 40 ng/ml, n = 6): 105%
- Remain, −80°C for 1 month ([2]; rat plasma QC, −80°C 1 month, 200 ng/ml, n = 6): 104%
- Remain, −80°C for 1 month ([2]; rat plasma QC, −80°C 1 month, LLOQ, n = 6): 98.9%
- AUC ([3]; in vivo, po, rat plasma, oral lotus leaf extract 2.4 g·kg^−1, n = 10, mean ± SD, read-out: AUC(0–tn)): 415 ± 200 ng·h/mL
- AUC(0-inf) ([3]; in vivo, po, rat plasma, oral lotus leaf extract 2.4 g·kg^−1, n = 10, mean ± SD, read-out: AUC(0–∞)): 429 ± 199 ng·h/mL
- Cmax ([3]; in vivo, po, rat plasma, oral lotus leaf extract 2.4 g·kg^−1, n = 10, mean ± SD, read-out: Cmax): 54.7 ± 31.8 ng/mL
- MRT ([3]; in vivo, po, rat plasma, oral lotus leaf extract 2.4 g·kg^−1, n = 10, mean ± SD, read-out: MRT(0–tn)): 7.11 ± 1.21 h
- MRT inf ([3]; in vivo, po, rat plasma, oral lotus leaf extract 2.4 g·kg^−1, n = 10, mean ± SD, read-out: MRT(0–∞)): 8.17 ± 1.86 h
- Tmax ([3]; in vivo, po, rat plasma, oral lotus leaf extract 2.4 g·kg^−1, n = 10, mean ± SD, read-out: Tmax): 5.7 ± 2.83 h
- half-life ([3]; in vivo, po, rat plasma, oral lotus leaf extract 2.4 g·kg^−1, n = 10, one compartment model, mean ± SD, read-out: T1/2 (converted)): 3.77 ± 1.15 h
- Absorption after orally administrating the lotus leaf extract (in words) ([3]; oral lotus leaf extract 2.4 g·kg^−1): slow absorption

Structure (SMILES): COc1cc2c(cc1OC)-c1cc3ccc(OC)c(OC)c3c[n+]1CC2 [IS, palmatine chloride, reference compound]
- Remain, stock solution ([1]; stock solution kept at 4°C for 2 weeks): 114%

Structure (SMILES): COc1cc2c(cc1OC)C(Cc1ccc(O)cc1)N(C)CC2 (stereo not drawn) [Armepavine, armepavine]
- Remain, working solution ([1]; 1 ng/ml): 98.8%
- Remain, working solution ([1]; 20 ng/ml): 95.8%
- Remain, working solution ([1]; 100 ng/ml): 101%
- Remain, working solution [1, 4]: 96.3%
- Remain, freeze thaw cycles ([2]; rat, plasma): 103%
- Remain, freeze thaw cycles ([2]; rat, plasma, 1 ng/ml): 107%
- Remain, freeze thaw cycles ([2]; rat, plasma, 20 ng/ml): 111%
- Remain, freeze thaw cycles ([2]; rat, plasma, 100 ng/ml): 85.2%
- Remain, −80°C for 1 month ([2]; rat, plasma, 1 month): 109%
- Remain, −80°C for 1 month ([2]; rat, plasma, 1 month, 1 ng/ml): 107%
- Remain, −80°C for 1 month ([2]; rat, plasma, 1 month, 20 ng/ml): 113%
- Remain, −80°C for 1 month ([2]; rat, plasma, 1 month, 100 ng/ml): 107%
- Remain, autosampler for 24 h ([2]; rat, plasma, 24 h): 87.6%
- Remain, room temperature for 24 h ([2]; rat, plasma, 24 h): 91.5%
- Remain, autosampler for 24 h ([2]; rat, plasma, 24 h, 1 ng/ml): 90.8%
- Remain, room temperature for 24 h ([2]; rat, plasma, 24 h, 1 ng/ml): 104%
- Remain, autosampler for 24 h ([2]; rat, plasma, 24 h, 20 ng/ml): 114%
- Remain, room temperature for 24 h ([2]; rat, plasma, 24 h, 20 ng/ml): 118%
- Remain, autosampler for 24 h ([2]; rat, plasma, 24 h, 100 ng/ml): 87.4%
- Remain, room temperature for 24 h ([2]; rat, plasma, 24 h, 100 ng/ml): 110%
- AUC ([3]; in vivo, po): 28.6 ± 16.5 ng·h/mL
- AUC(0-inf) ([3]; in vivo, po): 53.8 ± 34.6 ng·h/mL
- Cmax ([3]; in vivo, po): 8.78 ± 7.78 ng/mL
- MRT ([3]; in vivo, po): 7.23 ± 1.93 h
- MRT inf ([3]; in vivo, po): 31.9 ± 25.9 h
- Tmax ([3]; in vivo, po): 0.3 ± 0.11 h
- half-life ([3]; in vivo, po): 5.22 ± 5.09 h
- Absorption after orally administrating the lotus leaf extract (in words) ([3]; in vivo, po): fast absorption
